The test system of the test is MCF7. Nature of the test: Inhibition of MCF-7 cell proliferation. The format is functional, cell-based. The conditions noted are these: Homo sapiens.

The structures appear in SMILES notation.

As usually defined, the EC50 is the concentration at which the effect is half-maximal. Consider `Oc1ccc2c(c1)OC(c1ccc(OCCN3CCCCC3)cc1)c1c-2oc2cc(O)ccc12` (stereo unspecified), for which the 50% effective concentration (EC50) came to 0.04 µM.
